Assay results taken from paper PMC5423977, “Safety, pharmacokinetics, and pharmacodynamics of BMS-986142, a novel reversible BTK inhibitor, in healthy participants” (European Journal of Clinical Pharmacology, 2017).
Where two headings read alike, the source gives them in different places.

Experiment: Plasma pharmacokinetics of BMS-986142, MAD
Type: in vivo, human
Conditions: for AI_AUC geometric mean (%CV): MAD; for AI_AUC geometric mean (%CV) / AUC / Cmax / concentration at 14 day / Tmax / half-life: n = 6; for AUC / Cmax / concentration at 14 day / Tmax / half-life: human, plasma, oral; for AUC: read-out: AUC(TAU) geometric mean (%CV); for Cmax: read-out: Cmax geometric mean (%CV); for concentration at 14 day: read-out: Cmin geometric mean (%CV); for Tmax: read-out: Tmax median (min, max); for half-life: read-out: T1/2 mean (SD) (converted)
Description: Eligible participants were confined to the clinical facility (WCCT Global, LLC, Cypress, CA) the day before dosing (day −1) and randomized to receive SAD or MAD treatment under fasting conditions for 10 h. In the SAD group, eight healthy non-Japanese participants were assigned to each of up to six sequential dose panels (single oral doses of 5, 15, 50, 100, 300, and 900 mg BMS-986142) or placebo. Within each dose panel, participants were randomized in a 3:1 ratio to receive BMS-986142 (n = 6) or placebo (n = 2). In the MAD group, eight healthy non-Japanese participants were assigned to each of four sequential dose panels (daily oral doses of 25, 75, 200, and 350 mg BMS-986142) or placebo. Within each dose panel, participants were randomized in a 3:1 ratio to receive once-daily (QD) doses of BMS-986142 or placebo from day 1 to day 14 (Online Resource 1). Escalation to the next dose level in SAD and MAD was conducted after safety assessment had been completed and the treatment was considered safe and well tolerated. Additionally, dose levels in MAD were selected not to exceed the steady-state exposure of BMS-986142 (AUC: 22,920 ng h/mL) at NOAEL in rats obtained from a 1-month GLP toxicology study.
Blood samples for the measurement of BMS-986142 were collected up to 168 h after dosing of BMS-986142 on day 1 for participants in SAD. In MAD, blood samples were collected up to 24 h on day 1 and up to 120 h on day 14 (the last day of treatment). Blood samples for the measurement of MTX were collected up to 48 h after dosing of MTX on days 1 and 8.
Plasma samples were analyzed for BMS-986142 levels with a validated method using liquid chromatography tandem mass spectrometry (LC-MS/MS) detection. The analyte was extracted from 50 μL of plasma using a liquid–liquid extraction method. Methyl tert-butyl ether was used as the extraction solvent. The lower limit of quantification (LLOQ) was 1.00 ng/mL in plasma. Plasma samples were analyzed for methotrexate levels using LC-MS/MS detection. Analytes were isolated from 50 μL plasma through solid phase extraction using Waters Oasis MAX, 10-mg, 96-well SPE plates. The final extract was analyzed using LC-MS/MS detection. LLOQ was 1.00 ng/mL in plasma. Detailed methodology quantitating the concentration level of BMS-986142 and MTX is provided in Online Resource 10.
Individual subject pharmacokinetic parameters for BMS-986142 and MTX were derived by a non-compartmental method using validated PK software (WinNonLin version 6.3; Pharsight Corporation, Mountain View, CA, USA). The following PK parameters for BMS-986142 and MTX were derived from plasma concentration versus time data: maximum observed plasma concentration (Cmax); minimum observed plasma concentration (Cmin); time to maximum observed plasma concentration (Tmax); area under the plasma concentration-time curve from time zero to the time of the last quantifiable concentration (AUC(0-T)), from time zero extrapolated to infinite time (AUC(inf)), and in one dosing interval (AUC(TAU)); terminal plasma half-life (T1/2); and AUC accumulation index (AI_AUC). AI_AUC was calculated to divide AUC(TAU) on day 14 by AUC(TAU) on day 1.
Summary statistics were tabulated for all PK parameters by treatment and study days. Geometric mean (Gmean) and coefficient of variation (CV) are presented for Cmax, AUC(0-T), AUC(inf), AI_AUC, Cmin, and AUC(TAU); arithmetic mean and standard deviation (SD) are presented for T1/2; and median and range are presented for Tmax. Dose proportionality was assessed using the previously described power model. Briefly, the simple linear regression was applied to the natural log of the PK parameters on the natural log of dose using the following equation (Eq. 1).1 ElogPKParameterDose=α+β∗logDose.
A slope (β) equal to 1 would indicate perfect dose proportionality. For each PK parameter (Cmax, AUC(0-T), AUC(TAU), and AUC(inf)), point estimates and 90% CI of the slopes were calculated.

[1] = both sexes, MAD day 14, 25 mg QD

In the case of `Cc1c(-c2c(F)cc(C(N)=O)c3[nH]c4c(c23)CC[C@H](C(C)(C)O)C4)cccc1-n1c(=O)c2cccc(F)c2n(C)c1=O` [BMS-986142, 6-fluoro-5-(R)-(3-(S)-(8-fluoro-1-methyl-2,4-dioxo-1,2-dihydroquinazolin-3(4H)-yl)-2-methylphenyl)-2-(S)-(2-hydroxypropan-2-yl)-2,3,4,9-tetrahydro-1H-carbazole-8-carboxamide], the “Accumulation (accumulation index for AUC)” value (MAD 25-350 mg QD) is reported as “minimal to modest accumulation”, the “AI_AUC geometric mean (%CV)” value (AUC(TAU) day 14 / day 1, 25 mg QD) is reported as 1.57 (22) and the “AI_AUC geometric mean (%CV)” value (AUC(TAU) day 14 / day 1, 75 mg QD) is reported as 1.23 (31). The “AI_AUC geometric mean (%CV)” value (AUC(TAU) day 14 / day 1, 200 mg QD) was 1.23 (40), the “AI_AUC geometric mean (%CV)” value (AUC(TAU) day 14 / day 1, 350 mg QD) was 0.984 (32) and the AUC [1] was 539 ng·h/mL. It also gave a Cmax [1] of 56 ng/mL, a concentration at 14 day [1] of 7.85 ng/mL and a Tmax [1] of 2 h. For the same compound, the half-life (MAD day 14, 25 mg QD) was 10.9 h, the AUC (MAD day 14, 75 mg QD) was 2470 ng·h/mL and the Cmax (MAD day 14, 75 mg QD) was 281 ng/mL. For the same compound, the concentration at 14 day (MAD day 14, 75 mg QD) was 27.9 ng/mL, the half-life (MAD day 14, 75 mg QD) was 10.7 h and the Tmax (MAD day 14, 75 mg QD) was 2 h. The AUC (MAD day 14, 200 mg QD) was 5530 ng·h/mL, the Cmax (MAD day 14, 200 mg QD) was 592 ng/mL and the concentration at 14 day (MAD day 14, 200 mg QD) was 67.6 ng/mL. The half-life (MAD day 14, 200 mg QD) was 11 h, the Tmax (MAD day 14, 200 mg QD) was 2 h and the AUC (MAD day 14, 350 mg QD) was 10700 ng·h/mL. The Cmax (MAD day 14, 350 mg QD) was 1020 ng/mL, the concentration at 14 day (MAD day 14, 350 mg QD) was 166 ng/mL and the half-life (MAD day 14, 350 mg QD) was 10.2 h. The Tmax (MAD day 14, 350 mg QD) was 1.5 h.
